Data as given in patent US9694016B2 (Novartis AG, priority 2013, dated 2017).
Read-outs that look alike come from different tables or passages of the source.

Biological target: b-Raf (V600E) (Homo sapiens (Human), UniProt P15056, V600E)
Conditions: read-out: b-Raf IC-50
[1] = AlphaScreen, 60 min pre-incubation, 3 hours reaction
[2] = AlphaScreen, 60 min pre-incubation, reaction 3 hours at room temperature
[3] = Table 2, AlphaScreen, 3 hours reaction

b-Raf (V600E), sequence (P15056 whole entry V600E): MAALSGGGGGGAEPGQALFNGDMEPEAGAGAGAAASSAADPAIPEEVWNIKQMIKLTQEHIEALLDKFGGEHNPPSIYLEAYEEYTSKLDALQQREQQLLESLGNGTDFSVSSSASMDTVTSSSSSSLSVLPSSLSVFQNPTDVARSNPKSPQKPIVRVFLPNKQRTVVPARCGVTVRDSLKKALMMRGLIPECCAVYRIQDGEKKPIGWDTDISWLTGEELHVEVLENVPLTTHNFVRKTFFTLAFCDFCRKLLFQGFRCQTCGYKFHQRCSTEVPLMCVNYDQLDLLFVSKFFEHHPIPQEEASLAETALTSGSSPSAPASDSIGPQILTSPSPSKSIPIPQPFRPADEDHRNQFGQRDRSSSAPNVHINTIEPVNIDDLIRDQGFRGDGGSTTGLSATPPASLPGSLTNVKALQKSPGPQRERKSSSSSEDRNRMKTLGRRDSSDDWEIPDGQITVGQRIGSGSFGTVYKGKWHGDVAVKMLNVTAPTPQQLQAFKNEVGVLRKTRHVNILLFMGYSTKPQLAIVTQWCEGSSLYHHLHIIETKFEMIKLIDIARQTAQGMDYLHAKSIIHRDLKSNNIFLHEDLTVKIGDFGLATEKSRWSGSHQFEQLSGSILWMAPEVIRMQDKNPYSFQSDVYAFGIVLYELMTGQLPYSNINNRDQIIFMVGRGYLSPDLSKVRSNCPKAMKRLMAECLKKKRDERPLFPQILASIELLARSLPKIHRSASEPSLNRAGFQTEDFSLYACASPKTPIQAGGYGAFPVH
Source text: Sf9 cells co-expressing both proteins were lysed and subjected to immobilized nickel chromatography and eluted with Imidazole. A second column (StrepII binding column) was used and eluted with desthiobiotin. Protein Tags were removed using Prescission enzyme and the protein was further purified using a flowthrough step to remove tags.
Full length MEK1 with an inactivating K97R ATP binding site mutation is utilized as a RAF substrate. The MEK1 cDNA was subcloned with an N-terminal (his)6 tag into a vector for E. Coli expression. The MEK1 substrate was purified from E. Coli lysate by nickel affinity chromatography followed by anion exchange. The final MEK1 preparation was biotinylated (Pierce EZ-Link Sulfo-NHS-LC-Biotin) and concentrated.
Assay buffer: 50 mM Tris, pH 7.5, 15 mM MgCl2, 0.01% Bovine Serum Albumin (BSA), 1 mM dithiothreitol (DTT) Stop buffer: 60 mM ethylenediaminetetraacetic acid (EDTA), 0.01% Tween® 20
biotinylated Mek, kinase dead
384 well low volume assay plates (White Greiner® plates)
biotinylated Mek, Kinase dead approximately 10 nM
Pre-incubation time with compounds 60 minutes at room temperature
Reaction time 1 or 3 hours at room temperature
The plate was incubated for 60 minutes at room temperature.
The additions were carried out under dark conditions to protect the detection beads from light. A lid was placed on top of the plate and incubated for 1 hour at room temperature, then the luminescence was read on a PerkinElmer Envision instrument.

| Compound | IC50 [1] [nM] | IC50 [2] [nM] | further results |
| --- | --- | --- | --- |
| Cc1ccc(NC(=O)c2ccnc(C(C)(F)F)c2)cc1-c1cc(N2CCOC[C@@H]2C)c(=O)n(C)n1 [Example 664, (S)-2-(1,1-difluoroethyl)-N-(4-methyl-3-(1-methyl-5-(3-methylmorpholino)-6-oxo-1,6-dihydropyridazin-3-yl)phenyl)isonicotinamide] | 2.9 |  |  |
| Cc1ncc(NC(=O)c2ccnc(C3CC3)c2)cc1-c1cnc(OC2CCOCC2)c(N2CCOCC2)c1 [Example 941, 2-cyclopropyl-N-(2-methyl-5′-morpholino-6′-((tetrahydro-2H-pyran-4-yl)oxy)-[3,3′-bipyridin]-5-yl)isonicotinamide] |  | 2.28 |  |
| CCc1cc(C(=O)Nc2ccc(C)c(-c3cc(N4CCOCC4)c(=O)n(C)n3)c2)ccn1 [Example 642, 2-ethyl-N-(4-methyl-3-(1-methyl-5-morpholino-6-oxo-1,6-dihydropyridazin-3-yl)phenyl)isonicotinamide] | 1.4 |  |  |
| COc1ncc(-c2cc(NC(=O)c3ccnc(S(C)(=O)=O)c3)ccc2C)nc1N1CCOCC1 [Example 546, N-(3-(5-methoxy-6-morpholinopyrazin-2-yl)-4-methylphenyl)-2-(methylsulfonyl)isonicotinamide] | 5 |  |  |
| Cc1ccc(NC(=O)c2ccnc(C(C)(F)F)c2)cc1-c1cc(N2CCOCC2)nc(N2CC(O)C2)n1 [Example 772, 2-(1,1-difluoroethyl)-N-(3-(2-(3-hydroxyazetidin-1-yl)-6-morpholinopyrimidin-4-yl)-4-methylphenyl)isonicotinamide] | 1.9 |  |  |
| Cc1ccc(NC(=O)c2ccnc(C(C)(C)F)c2)cc1-c1cc(N2CCOCC2)n(C)c(=O)c1 [Example 479, 2-(2-fluoropropan-2-yl)-N-(4-methyl-3-(1-methyl-6-morpholino-2-oxo-1,2-dihydropyridin-4-yl)phenyl)isonicotinamide] | 1.8 |  |  |
| Cc1ncc(NC(=O)c2cccc(C(F)(F)F)c2)cc1-c1cnc(OC2CCS(=O)(=O)CC2)c(N2CCOCC2)c1 [Example 1034, N-(6′-((1,1-dioxidotetrahydro-2H-thiopyran-4-yl)oxy)-2-methyl-5′-morpholino-[3,3′-bipyridin]-5-yl)-3-(trifluoromethyl)benzamide] |  | 1.59 |  |
| COC(=O)NC[C@@H](C)Oc1ncc(-c2cc(NC(=O)c3cccc(C(F)(F)F)c3)cnc2C)cc1N1CCOCC1 [Example 1003, (R)-methyl(2-((2′-methyl-5-morpholino-5′-(3-(trifluoromethyl)benzamido)-[3,3′-bipyridin]-6-yl)oxy)propyl)carbamate] |  | 4.12 |  |
| Cc1ccc(NC(=O)c2ccnc(C(C)(C)C#N)c2)cc1-c1cc(N2CCOCC2)n(C)c(=O)c1 [Example 487, 2-(2-cyanopropan-2-yl)-N-(4-methyl-3-(1-methyl-6-morpholino-2-oxo-1,2-dihydropyridin-4-yl)phenyl)isonicotinamide] | 2.8 |  |  |
| Cc1ccc(NC(=O)c2ccnc(C(C)(C)F)c2)cc1-c1cc(NC[C@@H](C)O)nc(N2CCOCC2)n1 [Example 1025, (R)-2-(2-fluoropropan-2-yl)-N-(3-(6-((2-hydroxypropyl)amino)-2-morpholinopyrimidin-4-yl)-4-methylphenyl)isonicotinamide] |  | 12.7 |  |
| Cc1ccc(NC(=O)c2ccnc(C(F)(F)F)c2)cc1-c1cc(NC[C@@H](C)O)nc(N2CCOCC2)c1 [Example 991, (R)—N-(3-(2-((2-hydroxypropyl)amino)-6-morpholinopyridin-4-yl)-4-methylphenyl)-2-(trifluoromethyl)isonicotinamide] |  | 2.36 |  |
| CCOc1nnc(-c2cc(NC(=O)c3ccnc(C(F)(F)F)c3)cnc2C)cc1N1CCOCC1 [Example 616, N-(5-(6-ethoxy-5-morpholinopyridazin-3-yl)-6-methylpyridin-3-yl)-2-(trifluoromethyl)isonicotinamide] | 1.6 |  |  |
| Cc1ccc(NC(=O)c2ccnc(C(C)(C)C#N)c2)cc1-c1cc(N2CCOCC2)n2nccc2n1 [Example 792, 2(2-cyanopropan-2-yl)-N-(4-methyl-3(7-morpholinopyrazolo[1,5-a]pyrimidin-5-yl)phenyl)isonicotinamide] | 1.7 |  |  |
| CCOc1ncc(-c2cc(NC(=O)c3ccnc(C(C)(C)C#N)c3)cnc2C)cc1N1CCOCC1 [Example 239, 2-(2-cyanopropan-2-yl)-N-(6′-ethoxy-2-methyl-5′-morpholino-[3,3′-bipyridin]-5-yl)isonicotinamide] |  |  | IC50 [3]: 5.6 nM |
| Cc1ncc(NC(=O)c2cccc(C(F)(F)F)c2)cc1-c1cc(N2CCOCC2)nc(N[C@@H](C)CO)n1 [Example 745, (S)—N-(5-(2-((1-hydroxypropan-2-yl)amino)-6-morpholinopyrimidin-4-yl)-6-methylpyridin-3-yl)-3-(trifluoromethyl)benzamide] | 3.6 |  |  |
| Cc1ccc(NC(=O)c2ccnc(C(F)F)c2)cc1-c1cc(NCCO)nc(N2CCOCC2)c1 [Example 1053, 2-(difluoromethyl)-N-(3-(2-((2-hydroxyethyl)amino)-6-morpholinopyridin-4-yl)-4-methylphenyl)isonicotinamide] |  | 0.86 |  |

| Compound | IC50 [1] [nM] | IC50 [2] [nM] | further results |
| --- | --- | --- | --- |
| CCn1cc(C(=O)Nc2ccc(C)c(-c3cc(N4CCOCC4)nc(N4CC(O)C4)c3)c2)cc(C(F)(F)F)c1=O [Example 1061, 1-ethyl-N-(3-(2-(3-hydroxyazetidin-1-yl)-6-morpholinopyridin-4-yl)-4-methylphenyl)-6-oxo-5-(trifluoromethyl)-1,6-dihydropyridine-3-carboxamide] |  | 3.05 |  |
| Cc1ncc(NC(=O)c2cccc(C(F)(F)F)c2)cc1-c1cc(N2CCOCC2)c(=O)n(C)c1 [Example 138, N-(1′,2-dimethyl-5′-morpholino-6′-oxo-1′,6′-dihydro-[3,3′-bipyridin]-5-yl)-3-(trifluoromethyl)benzamide] |  |  | IC50 [3]: 4.7 nM |
| Cc1ccc(NC(=O)c2cc(CN(C)C)cc(C(F)(F)F)c2)cc1-c1cc(N2CCOCC2)c(=O)n(C)c1 [Example 173, 3-((dimethylamino)methyl)-N-(4-methyl-3-(1-methyl-5-morpholino-6-oxo-1,6-dihydropyridin-3-yl)phenyl)-5-(trifluoromethyl)benzamide] |  |  | IC50: 9.2 nM |
| CCOc1cc(-c2cc(NC(=O)c3ccnc(C(C)(F)F)c3)cnc2C)cc(N2CCOCC2)n1 [Example 1143, 2-(1,1-difluoroethyl)-N-(2′-ethoxy-2-methyl-6′-morpholino-[3,4′-bipyridin]-5-yl)isonicotinamide] |  | 1.81 |  |
| Cc1ccc(NC(=O)c2ccnc(C(C)(C)O)c2)cc1-c1cnc(OC(C)C)c(N2CCOCC2)c1 [Example 947, 2-(2-hydroxypropan-2-yl)-N-(3-(6-isopropoxy-5-morpholinopyridin-3-yl)-4-methylphenyl)isonicotinamide] |  | 1.76 |  |
| COCCOc1nnc(-c2cc(NC(=O)c3ccnc(C(C)(F)F)c3)ccc2C)cc1N1CCOCC1 [Example 597, 2-(1,1-difluoroethyl)-N-(3-(6-(2-methoxyethoxy)-5-morpholinopyridazin-3-yl)-4-methylphenyl)isonicotinamide] | 0.5 |  |  |
| Cc1ccc(NC(=O)c2cccc(C(C)(C)S(C)(=O)=O)c2)cc1-c1cc(N2CCOCC2)n(C)c(=O)c1 [Example 494, N-(4-methyl-3-(1-methyl-6-morpholino-2-oxo-1,2-dihydropyridin-4-yl)phenyl)-3-(2-(methylsulfonyl)propan-2-yl)benzamide] | 16.8 |  |  |
| CCOc1ncc(-c2cc(NC(=O)c3cccc(S(C)(=O)=O)c3)ccc2C)cc1N1CCOCC1 [Example 229, N-(3-(6-ethoxy-5-morpholinopyridin-3-yl)-4-methylphenyl)-3-(methylsulfonyl)benzamide] |  |  | IC50 [3]: 0.7 nM |
| Cc1ccc(NC(=O)c2cc(C(C)(F)F)ccn2)cc1-c1cc(N2CCOCC2)c(=O)n(C)c1 [Example 905, 4-(1,1-difluoroethyl)-N-(4-methyl-3-(1-methyl-5-morpholino-6-oxo-1,6-dihydropyridin-3-yl)phenyl)picolinamide] |  | 2.33 |  |
| Cn1cc(-c2cc(NC(=O)c3ccnc(C(C)(F)F)c3)ccc2Cl)cc(N2CCOCC2)c1=O [Example 414, N-(4-chloro-3-(1-methyl-5-morpholino-6-oxo-1,6-dihydropyridin-3-yl)phenyl)-2-(1,1-difluoroethyl)isonicotinamide] |  |  | IC50 [3]: 1.4 nM |
| Cc1ccc(NC(=O)c2cnncc2C(F)F)cc1-c1cc(N2CCOCC2)nc(N2CC(O)C2)c1 [Example 1075, 5-(difluoromethyl)-N-(3-(2-(3-hydroxyazetidin-1-yl)-6-morpholinopyridin-4-yl)-4-methylphenyl)pyridazine-4-carboxamide] |  | 682 |  |
| Cc1ccc(NC(=O)c2ccnc(C(C)(C)O)c2)cc1-c1cc(OC2CCOCC2)nc(N2CCOCC2)c1 [Example 1150, 2-(2-hydroxypropan-2-yl)-N-(4-methyl-3-(2-morpholino-6-((tetrahydro-2H-pyran-4-yl)oxy)pyridin-4-yl)phenyl)isonicotinamide] |  | 1.6 |  |
| Cc1ncc(NC(=O)c2cccc(C(C)(C)S(C)(=O)=O)c2)cc1-c1cc(N2CCOCC2)nc(N2CC(O)C2)c1 [Example 1091, N-(2′-(3-hydroxyazetidin-1-yl)-2-methyl-6′-morpholino-[3,4′-bipyridin]-5-yl)-3-(2-(methylsulfonyl)propan-2-yl)benzamide] |  | 1110 |  |
| Cc1ccc(NC(=O)c2ccnc(C(C)(F)F)c2)cc1-c1cc(N2CCOCC2)c(=O)n(C)n1 [Example 657, 2-(1,1-difluoroethyl)-N-(4-methyl-3-(1-methyl-5-morpholino-6-oxo-1,6-dihydropyridazin-3-yl)phenyl)isonicotinamide] | 1.1 |  |  |
| Cc1ccc(NC(=O)c2ccnc(C(C)(C)C)c2)cc1-c1cc(N2CCOCC2)n(C)c(=O)c1 [Example 472, 2-(tert-butyl)-N-(4-methyl-3-(1-methyl-6-morpholino-2-oxo-1,2-dihydropyridin-4-yl)phenyl)isonicotinamide] | 2.1 |  |  |
| Cc1ccc(C(=O)Nc2cccc(C(F)(F)F)c2)cc1-c1cc(N2CCOCC2)ccn1 [Example 64, 4-methyl-3-(4-morpholinopyridin-2-yl)-N-(3-(trifluoromethyl)phenyl)benzamide] |  |  | IC50 [3]: 0.9 nM |
